Source: patent publication US20250249060A1, “APPLICATION METHOD OF ACTIVE PORTION OF LIGUSTICUM CHUANXIONG IN PREPARATION OF ANTI-GOUT DRUG” (Shaanxi University of Chinese Medicine, priority 2024, published 2025)

Experiments:
hyperuricemia mice = assay: Serum uric acid level in hyperuricemia mice; assay type: in vivo; conditions: gavage 7 days
[1] = biological target: xanthine oxidase (XOD, or XO) (Homo sapiens, UniProt P47989); assay: Inhibitory effect of extracts/liquid-liquid extracts on XOD activity in vitro (96-well plate, absorbance at 295 nm); assay type: biochemical; conditions: tested samples as 1 mg/mL solution, allopurinol positive control 2 mg in 1 mL DMSO + 8 mL PBS
Sequence of xanthine oxidase (XOD, or XO) (P47989 whole entry, species assumed): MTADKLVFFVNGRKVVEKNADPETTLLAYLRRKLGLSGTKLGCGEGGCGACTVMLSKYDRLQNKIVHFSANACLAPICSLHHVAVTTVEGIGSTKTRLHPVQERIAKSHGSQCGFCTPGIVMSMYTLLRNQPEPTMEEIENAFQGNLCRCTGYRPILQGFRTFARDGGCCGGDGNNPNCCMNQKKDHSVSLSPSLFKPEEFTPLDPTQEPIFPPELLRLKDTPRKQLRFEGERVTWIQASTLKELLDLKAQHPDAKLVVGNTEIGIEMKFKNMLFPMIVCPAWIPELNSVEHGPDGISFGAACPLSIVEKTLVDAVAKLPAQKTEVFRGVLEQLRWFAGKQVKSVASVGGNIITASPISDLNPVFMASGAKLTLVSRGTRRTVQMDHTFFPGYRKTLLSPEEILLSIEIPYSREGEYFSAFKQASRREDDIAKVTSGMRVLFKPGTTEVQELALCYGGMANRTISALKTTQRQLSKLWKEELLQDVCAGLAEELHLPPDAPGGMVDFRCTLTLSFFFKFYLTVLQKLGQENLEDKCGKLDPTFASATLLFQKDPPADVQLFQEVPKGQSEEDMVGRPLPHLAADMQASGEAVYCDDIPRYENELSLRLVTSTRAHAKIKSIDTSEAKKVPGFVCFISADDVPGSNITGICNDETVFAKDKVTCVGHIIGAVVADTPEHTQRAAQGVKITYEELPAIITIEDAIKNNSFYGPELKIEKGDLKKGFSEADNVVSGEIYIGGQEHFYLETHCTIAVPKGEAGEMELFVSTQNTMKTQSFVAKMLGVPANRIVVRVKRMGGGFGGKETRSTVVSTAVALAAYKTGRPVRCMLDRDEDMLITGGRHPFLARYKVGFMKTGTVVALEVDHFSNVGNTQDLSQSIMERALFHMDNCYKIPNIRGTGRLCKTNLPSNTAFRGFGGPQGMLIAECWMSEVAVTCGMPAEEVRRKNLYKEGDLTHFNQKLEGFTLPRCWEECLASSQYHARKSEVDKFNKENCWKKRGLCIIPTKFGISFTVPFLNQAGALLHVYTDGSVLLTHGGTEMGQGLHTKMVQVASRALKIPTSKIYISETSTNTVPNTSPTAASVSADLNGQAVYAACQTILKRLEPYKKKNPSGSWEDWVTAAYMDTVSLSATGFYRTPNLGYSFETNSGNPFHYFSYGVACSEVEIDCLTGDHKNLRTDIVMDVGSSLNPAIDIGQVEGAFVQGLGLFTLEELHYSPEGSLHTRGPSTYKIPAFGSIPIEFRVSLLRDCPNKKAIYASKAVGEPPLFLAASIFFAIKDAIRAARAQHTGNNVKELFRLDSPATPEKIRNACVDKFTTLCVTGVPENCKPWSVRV
Procedure: 2.1 Buffer solution preparation: 0.4780 g of potassium phosphate monobasic (KH2PO4), 3.473 g of dipotassium hydrogen phosphate trihydrate (K2HPO4·3H2O) and 10.00 milligrams (mg) of ethylenediaminetetraacetic acid disodium salt (EDTA-2Na) are accurately weighed, and then placed in a 250 mL volumetric flask, and diluted to volume with distilled water to obtain the buffer solution. 2.2 Substrate preparation: 3.65 mg of xanthine is accurately weighed, and then added into the buffer solution to dilute to volume of 50 mL, and the xanthine is dissolved with ultrasound to obtain the substrate. 2.3 Enzyme solution preparation: XOD (5 units abbreviated as U) is taken and diluted with 50 mL of the buffer solution to obtain a diluted solution, and the diluted solution is subpackaged in sample bottles to obtain the enzyme solution, and kept in a temperature of −70 Celsius degree (° C.) for later use. […] After that the solution is filtered with a microporous filter membrane to obtain the samples to be tested for later use. 2.6 XOD activity determination: […] […] 2.8 A half maximal inhibitory concentration (IC50) value measurement: the active portion is prepared into 7 series concentrations to explore a dose-effect relationship based on results of the activity test, and IC50 value of the active portion is calculated through a GraphPad prism 8 software.

serum XOD = biological target: T1, serum XOD (Rattus norvegicus, UniProt P22985); assay: Serum XOD activity in hyperuricemia rats; assay type: in vivo; conditions: model group 30 U/L
T1 construct: The activity of the serum XOD of hyperuricemia in rats is measured by using the colorimetry; from tissue; host or cells: serum of hyperuricemia rats
T1 sequence (P22985 whole entry): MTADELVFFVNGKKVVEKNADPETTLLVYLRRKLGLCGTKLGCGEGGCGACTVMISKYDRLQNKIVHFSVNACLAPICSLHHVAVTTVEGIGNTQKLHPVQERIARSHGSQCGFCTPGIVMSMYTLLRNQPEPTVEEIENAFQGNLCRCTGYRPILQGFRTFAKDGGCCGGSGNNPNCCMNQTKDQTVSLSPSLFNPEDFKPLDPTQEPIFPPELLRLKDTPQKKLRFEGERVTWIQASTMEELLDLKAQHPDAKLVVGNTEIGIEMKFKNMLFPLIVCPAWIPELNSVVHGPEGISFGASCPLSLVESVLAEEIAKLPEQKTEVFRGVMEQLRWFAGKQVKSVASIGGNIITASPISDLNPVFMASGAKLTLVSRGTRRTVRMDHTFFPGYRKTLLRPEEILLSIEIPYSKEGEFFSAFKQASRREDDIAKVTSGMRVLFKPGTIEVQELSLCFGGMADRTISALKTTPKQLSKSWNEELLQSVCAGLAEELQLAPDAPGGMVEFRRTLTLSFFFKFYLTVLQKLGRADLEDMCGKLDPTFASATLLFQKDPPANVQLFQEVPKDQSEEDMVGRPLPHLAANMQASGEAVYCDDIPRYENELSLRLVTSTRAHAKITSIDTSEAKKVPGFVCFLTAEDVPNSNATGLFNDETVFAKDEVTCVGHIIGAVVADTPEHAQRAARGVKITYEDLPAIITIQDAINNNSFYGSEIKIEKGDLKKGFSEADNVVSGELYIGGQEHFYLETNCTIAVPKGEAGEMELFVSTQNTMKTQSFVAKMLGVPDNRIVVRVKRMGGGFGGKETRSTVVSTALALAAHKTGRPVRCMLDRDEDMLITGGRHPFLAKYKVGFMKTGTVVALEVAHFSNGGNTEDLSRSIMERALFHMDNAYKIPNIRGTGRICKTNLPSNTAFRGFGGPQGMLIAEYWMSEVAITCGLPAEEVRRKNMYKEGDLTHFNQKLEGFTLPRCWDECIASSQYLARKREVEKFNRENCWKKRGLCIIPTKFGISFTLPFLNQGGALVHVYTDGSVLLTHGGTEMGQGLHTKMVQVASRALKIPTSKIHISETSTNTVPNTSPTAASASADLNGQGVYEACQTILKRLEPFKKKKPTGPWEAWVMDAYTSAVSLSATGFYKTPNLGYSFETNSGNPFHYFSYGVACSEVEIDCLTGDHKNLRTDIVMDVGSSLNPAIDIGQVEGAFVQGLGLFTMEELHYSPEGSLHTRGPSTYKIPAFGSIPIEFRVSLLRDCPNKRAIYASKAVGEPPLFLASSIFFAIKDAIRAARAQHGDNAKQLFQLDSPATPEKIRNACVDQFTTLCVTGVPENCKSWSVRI

[2] = Body weight gain of mice before and after treatment; conditions: allopurinol 40 mg/kg·d, colchicine 1 mg/kg·d, extract 500 mg/kg·d
[3] = test system: acute gouty arthritis mice; assay: Paw swelling degree in MSU-induced acute gouty arthritis mice; assay type: in vivo
Procedure: Livers of the mice are taken and kept in a temperature of −80° C. for later use. The normal control group of mice is injected with 0.1 mL of physiological saline onto right foot pad of the mice after 1 h gavage on the 7th day. […] 0 h, 4 h, 8 h, 12 h and 24 h after the MSU crystal suspension injection, paw volumes of the mice are measured by using the paw volume measuring instrument, the paw swelling degrees of the mice are calculated, and the calculation formula is as follows: [formula] • where Ct represents a paw volume at different time points after injection, and Co represents a paw volume at 0 h after injection.

Compound	decrease of serum uric acid level compared to the model group (hyperuricemia mice)	serum uric acid level (hyperuricemia mice; model 286.82 μmol/L)	inhibition rate on activity of the XOD [1]	serum XOD activity compared to the model group (serum XOD)	weight gain compared to the normal control group [2]	decrease of paw swelling degree compared with the model group ([3]; 24 h after MSU injection)	decrease of paw swelling degree compared with the model group ([3]; at 4 h, 8 h, 12 h and 24 h)
Oc1ncnc2[nH]ncc12 [allopurinol]	75.16%	68.72 µmol/L	96.78%	significantly decreases	–	–	–
COc1cc2c(c(OC)c1OC)-c1ccc(OC)c(=O)cc1[C@@H](NC(C)=O)CC2 [colchicine]	–	–	–	–	significantly lower	15.32%	more than 9%
